Assay results published in the NIST ThermoML archive (doi:10.1021/acs.jced.7b01021).
± gives the expanded uncertainty stated by the source.

Settings: Liquid, Ebulliometric method (Recirculating still)

Clc1ccccc1 [chlorobenzene]
vapor or sublimation pressure (404.8 K): 101.33 ± 0.71 kPa

CC(C)(C)O [2-methylpropan-2-ol]
vapor or sublimation pressure (355.59 K): 101.33 ± 0.71 kPa

CC(=O)OC(C)(C)C [1,1-dimethylethyl ethanoate]
vapor or sublimation pressure (371.05 K): 101.33 ± 0.71 kPa
